Data: ChEMBL document CHEMBL6087414, “Discovery of 4-(4-(3-(1-(2-(piperidin-1-yl)ethyl)-1H-benzo[d]imidazole-2-yl)isoxazol-5-yl)phenyl)morpholine as a novel c-Myc inhibitor against lung cancer in vitro and in vivo” (Eur J Med Chem, 2025)

How the values were obtained:
A549 = test: Cytotoxicity against human A549 cells assessed as inhibition of cell viability incubated for 48 hrs by CCK8 assay; format: functional, cell-based; details: A549, 48 h
NCI-H1299 = test: Cytotoxicity against human NCI-H1299 cells assessed as inhibition of cell viability incubated for 48 hrs by CCK8 assay; format: functional, cell-based; details: NCI-H1299, 48 h

| Structure (SMILES) | IC50 (A549) [µM] | IC50 (NCI-H1299) [µM] |
| --- | --- | --- |
| c1ccc2c(c1)nc(-c1cc(-c3ccc(N4CCCCC4)cc3)on1)n2CCN1CCCC1 | 7.68 | 19 |
| Cc1ccc(C(=O)n2c(-c3cc(-c4ccc(F)cc4)on3)nc3ccccc32)cc1 | > 40 | 30.1 |
| CN(C)CCCn1c(-c2cc(-c3ccc(N(C)C)cc3)on2)nc2ccccc21 | 20.6 | 17.9 |
| c1ccc2c(c1)nc(-c1cc(-c3ccc(N4CCOCC4)cc3)on1)n2CCN1CCCCCC1 | 9.94 | 27.6 |
| c1ccc(Cn2c(-c3cc(-c4ccc(N5CCOCC5)cc4)on3)nc3ccccc32)cc1 | > 40 | > 40 |
| CN(C)CCCn1c(-c2cc(-c3ccc(N4CCCCCC4)cc3)on2)nc2ccccc21 | 8.19 | 12.9 |
| CCN(CC)CCCn1c(-c2cc(-c3ccc(N4CCCCC4)cc3)on2)nc2ccccc21 | 7.41 | 18 |
| c1ccc2c(c1)nc(-c1cc(-c3ccc(N4CCCCC4)cc3)on1)n2CCN1CCOCC1 | 11.2 | 23.8 |
| Cc1cc(C)cc(C(=O)n2c(-c3cc(-c4ccc(N5CCOCC5)cc4)on3)nc3ccccc32)c1 | 19.2 | > 40 |
| CCN(CC)CCCn1c(-c2cc(-c3ccc(N4CCCCCC4)cc3)on2)nc2ccccc21 | 12.2 | 14.3 |
| CN(C)c1ccc(-c2cc(-c3nc4ccccc4n3CCCN3CCCCC3)no2)cc1 | 11.6 | 16.9 |
| O=C(c1ccccc1)n1c(-c2cc(-c3ccc(F)cc3)on2)nc2ccccc21 | > 40 | 23.9 |
| c1ccc2c(c1)nc(-c1cc(-c3ccc(N4CCCCC4)cc3)on1)n2CCN1CCCCC1 | 9.23 | 21.5 |
| CCc1ccc(C(=O)n2c(-c3cc(-c4ccc(N5CCOCC5)cc4)on3)nc3ccccc32)cc1 | 23.6 | 27.6 |
| CN(C)c1ccc(-c2cc(-c3nc4ccccc4n3CCCN3CCOCC3)no2)cc1 | 13.6 | 17 |
| c1ccc2c(c1)nc(-c1cc(-c3ccc(N4CCCCCC4)cc3)on1)n2CCCN1CCOCC1 | 20.6 | 22.3 |
| c1ccc2c(c1)nc(-c1cc(-c3ccc(N4CCOCC4)cc3)on1)n2CCCN1CCOCC1 | 13.6 | 23.2 |
| c1ccc2c(c1)nc(-c1cc(-c3ccc(N4CCCCCC4)cc3)on1)n2CCN1CCOCC1 | 10.9 | 21 |
| c1ccc2c(c1)nc(-c1cc(-c3ccc(N4CCOCC4)cc3)on1)n2CCN1CCOCC1 | 8.46 | 21 |
| c1ccc2c(c1)nc(-c1cc(-c3ccc(N4CCCC4)cc3)on1)n2CCN1CCCC1 | 20.8 | 38 |
| CN(C)CCCn1c(-c2cc(-c3ccc(N4CCOCC4)cc3)on2)nc2ccccc21 | 10.1 | 22.3 |
| c1ccc2c(c1)nc(-c1cc(-c3ccc(N4CCCCCC4)cc3)on1)n2CCN1CCCC1 | 10.5 | 24.6 |
